These results are taken from paper PMC4896453 (PLoS ONE, 2016).

“Also recorded” adds a separate entry of the source. Like-named read-outs stand apart in the source and are kept apart here.

Data set [1] has as its target T1, human Mu receptor (Homo sapiens, UniProt P35372).
T1 construct: expressed in transfected cells; host or cells: CHO
Kind of data set: Calcium mobilisation, CHO cells with Mu and Gαqi5. The data set is classed as cell-based. To be noted: calcium mobilisation, at least 3 experiments in duplicate.

In data set [2] the test system is rats. Kind of data set: Rota-rod test after intrathecal infusion. The data set is classed as in vivo, rat. To be noted: same range of doses (0.1–1 nmol), data not shown. How it is done:
For all the experiments described below, male Sprague-Dawley rats (Harlan, Varese, Italy), weighing approximately 280-300g at the beginning of the experimental procedure, were used. Animals were housed in CeSAL (Centro Stabulazione Animali da Laboratorio, University of Florence) and used at least one week after their arrival. One rat was housed per cage (size 26x41 cm); animals were fed with standard laboratory diet and tap water ad libitum, and kept at 23±1°C with a 12 h light/dark cycle, light at 7 a.m. […] All animals were monitored daily using a scoring system (based on: Appearance, Food and Water Intake, Clinical Signs, Natural Behaviour and Provoked Behaviour. Maximum score is 20 and animals reaching 10 are euthanized. In the experiments reported here no animals reached this score and none died before the end of the experiment) and at the end of the experiment were euthanized by CO2 overdose. […]
Rota-rod apparatus (Ugo Basile, Varese, Italy) consisted of a base platform and a rotating rod with a diameter of 6 cm and a non-slippery surface. […] The integrity of motor coordination was assessed on the basis of the number of falls from the rod in 60s measured 15, 30, 45, 60, 90, 120 and 180 min after treatments.

The target in data set [3] is human NOP receptor (NOP-RLuc/Gβ1-RGFP) (Homo sapiens, UniProt P41146). Description: biochemical. The data set is classed as biochemical.
Data set [4] has as its target T2, human NOP receptor (NOP-RLuc/β-arrestin 2-RGFP) (Homo sapiens, UniProt P41146).
T2 construct: expressed in transfected cells; host or cells: HEK-293 (retroviral expression; whole cells)
Description: BRET NOP-RLuc/β-arrestin 2-RGFP interaction, HEK-293 cells. The class given is cell-based. To be noted: BRET, HEK-293 cells, room temperature; at least 4 experiments in duplicate.

Data set [5] deals with T3, human NOP receptor (Homo sapiens, UniProt P41146).
T3 construct: expressed in transfected cells; host or cells: CHO
Kind of data set: Calcium mobilisation, CHO cells with NOP and Gαqi5. The data set is classed as cell-based. To be noted: calcium mobilisation, CHO cells with human NOP and Gαqi5, Fluo-4 AM, 37°C; at least 3 experiments in duplicate.

For data set [6], the system named is electrically stimulated guinea pig ileum. Description: Electrically stimulated guinea pig ileum bioassay. To be noted: for Kb: Cavia porcellus. Here is the method:
With approval of Animal Subjects Review Board of the University of Ferrara and from the Italian Ministry of Health (PROT-186) ileum tissues were taken from male albino guinea pigs of 350–400 g (Pampaloni, Pisa, Italy). The animals were treated in accordance with European guidelines (86/609/ECC) and national regulations (DL 116/92). They were housed in 560 x 320 x 180 mm cages (Techinplast), three per cage, under standard conditions (22°C, 55% humidity, 12 h light/dark cycle, light on at 7:00 h) with food (complete feed for guinea pig, Mucedola, Milano, Italy) and water ad libitum. The day of the experiment the animals were killed with an isofluorane overdose. Bioassay experiments were performed as previously described. The tissues were suspended in 5 ml organ baths containing Krebs solution (composition in mM: NaCl 118.5, KCl 4.7, MgSO4 1.2, KH2PO4 1.2, NaHCO3 25, CaCl2 1.8, glucose 10), hexamethonium bromide 22 μM, benadril 0.34 μM and oxygenated with 95% O2 and 5% CO2. The temperature was set at 37°C. At resting tension, 1 g was applied to the tissues. Tissues were stimulated through two platinum electrodes with a supramaximal rectangular pulse of 1 ms duration, 0.05 Hz frequency, 80V amplitude. Electrically evoked contractions were measured isotonically by means of Basile strain gauge transducers (Basile 7006; srl Ugo Basile, Varese, Italy) and recorded with a computer–based acquisition system (Power Lab 8, ADInstruments, USA). After an equilibration period of about 60 min, the contractions induced by electrical field stimulation were stable. At this time, cumulative concentration response curves to agonists were constructed (0.5 log unit steps). Antagonists were injected into the baths 15 minutes before constructing agonist concentration response curves.
Data are expressed as mean±SEM or with confidence intervals as appropriate. For more than 2 groups, data are analysed using ANOVA with post-hoc testing using Dunnett’s or Bonferroni’s test as appropriate. Where there are only 2 groups paired or unpaired t-tests were used. P values of less than 0.05 were considered significant. All curve fitting was accomplished using Graphpad-Prism (V6). […] In gpI experiments the antagonist potency (pKb) is calculated from the rightward shift of the agonist concentration response curve by a fixed antagonist concentration.

For data set [7], the system named is monkey. To be noted: monkey tail withdraw assay; cited from earlier work.
The subject of data set [8] is rat. To be noted: in vivo; cited from earlier work.
Data set [9] deals with T4, NOP receptor (CHOhNOP cells) (Homo sapiens, UniProt P41146).
T4 construct: expressed in transfected cells; host or cells: CHO (Chinese Hamster Ovary)
Description: cAMP assay, forskolin-stimulated CHOhNOP whole cells. The data set is classed as cell-based. To be noted: forskolin 1μM, mean (±SEM). How it is done:
(§1) CHOhMu and CHOhNOP whole cells were suspended in Krebs/HEPES buffer, containing isobutylmethylxanthine (1mM) and forskolin (1μM).

Data set [10] has as its target T5, Mu receptor (CHOhMu cells) (Homo sapiens, UniProt P35372).
T5 construct: expressed in transfected cells; host or cells: CHO (Chinese Hamster Ovary)
Kind of data set: cAMP assay, forskolin-stimulated CHOhMu whole cells. The class given is cell-based. To be noted: forskolin 1μM, mean (±SEM). How it is done: as §1

Data set [11] deals with T6, human Mu receptor (Mu-RLuc/β-arrestin 2-RGFP) (Homo sapiens, UniProt P35372).
T6 construct: expressed in transfected cells; host or cells: SH-SY5Y (retroviral expression; whole cells)
Description: BRET Mu-RLuc/β-arrestin 2-RGFP interaction, SH-SY5Y cells. The class given is cell-based. To be noted: BRET, SH-SY5Y cells, room temperature; at least 4 experiments in duplicate.

The mark [12] stands for this setting: antagonist 15 minutes before agonist curve, from rightward shift, read-out: antagonist potency pKb against DeNo (converted).

T1 sequence (P35372 whole entry): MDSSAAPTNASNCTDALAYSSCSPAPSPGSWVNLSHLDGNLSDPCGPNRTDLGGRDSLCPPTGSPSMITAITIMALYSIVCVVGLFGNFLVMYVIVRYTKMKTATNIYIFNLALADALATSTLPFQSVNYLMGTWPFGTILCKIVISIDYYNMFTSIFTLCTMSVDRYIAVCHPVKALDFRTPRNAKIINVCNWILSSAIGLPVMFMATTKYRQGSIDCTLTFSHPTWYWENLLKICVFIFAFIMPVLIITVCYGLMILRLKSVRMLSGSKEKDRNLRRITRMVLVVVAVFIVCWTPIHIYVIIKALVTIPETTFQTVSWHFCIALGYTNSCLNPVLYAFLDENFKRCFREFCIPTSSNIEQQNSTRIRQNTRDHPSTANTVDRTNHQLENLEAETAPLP
human NOP receptor (NOP-RLuc/Gβ1-RGFP), sequence (P41146 whole entry, looked up): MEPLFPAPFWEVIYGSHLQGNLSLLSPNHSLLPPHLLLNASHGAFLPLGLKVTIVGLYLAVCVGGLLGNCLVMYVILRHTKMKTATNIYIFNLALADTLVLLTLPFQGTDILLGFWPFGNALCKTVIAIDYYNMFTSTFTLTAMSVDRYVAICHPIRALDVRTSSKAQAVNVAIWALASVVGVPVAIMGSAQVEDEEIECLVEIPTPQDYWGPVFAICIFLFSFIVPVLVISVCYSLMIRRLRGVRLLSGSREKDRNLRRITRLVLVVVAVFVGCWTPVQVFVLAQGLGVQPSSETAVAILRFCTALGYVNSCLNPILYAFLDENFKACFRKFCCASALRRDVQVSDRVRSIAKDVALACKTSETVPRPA
T2 sequence (P41146+P27652 fused): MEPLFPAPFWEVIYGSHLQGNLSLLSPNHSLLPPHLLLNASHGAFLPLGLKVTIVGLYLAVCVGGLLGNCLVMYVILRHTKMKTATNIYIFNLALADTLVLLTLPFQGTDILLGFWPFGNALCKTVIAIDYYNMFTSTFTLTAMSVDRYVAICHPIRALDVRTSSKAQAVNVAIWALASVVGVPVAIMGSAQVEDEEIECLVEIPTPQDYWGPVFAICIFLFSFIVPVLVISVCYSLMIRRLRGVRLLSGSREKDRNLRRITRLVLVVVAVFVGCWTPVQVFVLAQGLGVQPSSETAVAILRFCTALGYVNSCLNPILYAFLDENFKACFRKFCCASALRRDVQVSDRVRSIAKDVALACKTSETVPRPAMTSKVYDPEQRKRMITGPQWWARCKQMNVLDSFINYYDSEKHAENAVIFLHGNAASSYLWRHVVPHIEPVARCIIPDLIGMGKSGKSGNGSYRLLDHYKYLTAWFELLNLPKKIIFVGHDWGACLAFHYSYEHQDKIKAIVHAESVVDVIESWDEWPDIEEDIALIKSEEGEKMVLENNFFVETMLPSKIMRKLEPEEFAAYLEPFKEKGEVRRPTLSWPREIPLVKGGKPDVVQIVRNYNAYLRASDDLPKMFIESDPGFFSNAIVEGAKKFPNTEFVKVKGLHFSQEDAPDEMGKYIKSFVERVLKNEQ
T2 sequence (P32121 whole entry partner): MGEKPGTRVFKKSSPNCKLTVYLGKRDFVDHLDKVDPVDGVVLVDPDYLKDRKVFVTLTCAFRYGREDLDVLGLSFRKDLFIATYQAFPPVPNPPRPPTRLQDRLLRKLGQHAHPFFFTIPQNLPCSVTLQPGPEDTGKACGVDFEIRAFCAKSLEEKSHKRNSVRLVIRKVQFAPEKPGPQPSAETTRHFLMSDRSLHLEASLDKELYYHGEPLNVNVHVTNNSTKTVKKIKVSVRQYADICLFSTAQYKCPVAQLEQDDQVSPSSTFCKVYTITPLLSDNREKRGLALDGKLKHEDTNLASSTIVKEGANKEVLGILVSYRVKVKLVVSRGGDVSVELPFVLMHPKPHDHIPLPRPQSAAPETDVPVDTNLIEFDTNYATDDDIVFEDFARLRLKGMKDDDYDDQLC
T3 sequence (P41146 whole entry): as the sequence (P41146 whole entry, looked up) above
T4 sequence (P41146 whole entry): as the sequence (P41146 whole entry, looked up) above
T5 sequence (P35372 whole entry): as the sequence (P35372 whole entry) above
T6 sequence (P35372+P27652 fused): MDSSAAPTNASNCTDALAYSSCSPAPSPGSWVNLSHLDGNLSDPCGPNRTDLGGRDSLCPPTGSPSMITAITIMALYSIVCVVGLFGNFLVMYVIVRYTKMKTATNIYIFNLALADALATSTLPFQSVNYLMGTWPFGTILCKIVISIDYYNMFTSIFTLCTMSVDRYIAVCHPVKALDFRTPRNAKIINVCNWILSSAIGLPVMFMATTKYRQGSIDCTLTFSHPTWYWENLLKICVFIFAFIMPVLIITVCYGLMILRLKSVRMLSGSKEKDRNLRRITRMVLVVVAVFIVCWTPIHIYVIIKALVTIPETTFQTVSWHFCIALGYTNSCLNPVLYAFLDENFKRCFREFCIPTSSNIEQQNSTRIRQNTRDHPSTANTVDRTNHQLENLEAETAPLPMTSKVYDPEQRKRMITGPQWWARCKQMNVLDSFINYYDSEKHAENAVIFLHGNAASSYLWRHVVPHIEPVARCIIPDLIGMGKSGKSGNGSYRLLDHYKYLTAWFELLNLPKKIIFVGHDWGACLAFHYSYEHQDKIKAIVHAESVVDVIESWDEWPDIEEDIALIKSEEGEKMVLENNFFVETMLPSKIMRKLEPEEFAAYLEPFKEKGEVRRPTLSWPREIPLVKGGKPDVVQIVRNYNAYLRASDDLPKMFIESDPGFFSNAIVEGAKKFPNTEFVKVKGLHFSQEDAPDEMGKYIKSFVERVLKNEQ
T6 sequence (P32121 whole entry partner): as the sequence (P32121 whole entry partner) above

As to `C[C@@H](NC(=O)[C@@H](N)Cc1ccc(O)cc1)C(=O)N[C@@H](Cc1ccccc1)C(=O)NCC(=O)N[C@@H](Cc1ccc(O)cc1)C(=O)N1CCC[C@H]1C(=O)N[C@@H](CO)C(N)=O` [dermorphin], the Emax in data set [1] (% over basal fluorescence, CHO cells with human Mu and Gαqi5, SEM) is 234 ± 14%. The “animal performance in the rotarod test” value in [2] is reported as “impaired animal performance in the rotarod test”. The “Gβ1-protein NOP pEC50(CL95%)” value in data set [3] is “very weak only increasing BRET ratio at micromolar concentrations; also recorded: crc incomplete”. Besides, the “β-arrestin 2 NOP pEC50 (CL95%)” value in [4] was “completely inactive”. Besides, the “NOP pEC50 (CL95%)” value in data set [5] is recorded as “crc incomplete”.
With `C=CCN1CC[C@]23c4c5ccc(O)c4O[C@H]2C(=O)CC[C@@]3(O)[C@H]1C5` [naloxone, Naloxone], the Kb in data set [6] (setting [12]) was 28.8 nM; in data set [6] (read-out: antagonist potency pKb against dermorphin (converted), antagonist 15 minutes before agonist curve, from rightward shift) it was 2.69 nM. In data set [6] (antagonist 100 nM, 15 minutes before agonist curve, from rightward shift), the “antagonist potency pKb against N/OFQ” value is on record as “does not affect the inhibitory action of N/OFQ”.
On to [Dmt^1]N/OFQ(1–13)-NH2, for which the “increase in potency over N/OFQ” value in [7] was 30 fold.
Turning to `Cc1cccc2c1CC[C@H](CN1CCC(c3c(Cl)cccc3Cl)CC1)C[C@@H]2O` [SB-612111], the Kb in [6] (antagonist 100 nM, 15 minutes before agonist curve, from rightward shift, read-out: antagonist potency pKb against N/OFQ (converted)) is 4.37 nM; in data set [6] (setting [12]) it was 85.1 nM.
As for `CN1CC[C@]23c4c5ccc(O)c4O[C@H]2[C@@H](O)C=C[C@H]3[C@H]1C5` [morphine], the time to tolerance in [8] was 11 days.
As for `C=C[C@@]1(C)CC(=O)[C@]2(O)[C@@]3(C)[C@@H](O)CCC(C)(C)[C@@H]3[C@H](O)[C@H](OC(C)=O)[C@@]2(C)O1` [forskolin], the “increase in cAMP production compared to basal, CHOhNOP” value in data set [9] is reported as 21.23 (±3.86) fold. The “increase in cAMP production compared to basal, CHOhMu” value in data set [10] is listed as 24.3 (±1.79) fold.
On to `CC(C)C[C@H](NC(=O)[C@H](CCCCN)NC(=O)[C@H](CCCNC(=N)N)NC(=O)[C@H](C)NC(=O)[C@H](CO)NC(=O)[C@H](CCCCN)NC(=O)[C@H](CCCNC(=N)N)NC(=O)[C@H](C)NC(=O)CNC(=O)[C@@H](NC(=O)[C@H](Cc1ccccc1)NC(=O)CNC(=O)CNC(=O)[C@@H](N)Cc1ccccc1)[C@@H](C)O)C(=O)N[C@@H](C)C(=O)N[C@@H](CC(N)=O)C(=O)N[C@@H](CCC(N)=O)C(=O)O` [N/OFQ, nociceptin/orphanin FQ], for which, in data set [1] (% over basal fluorescence, CHO cells with human Mu and Gαqi5), the “Mu Emax ± SEM” value is “Inactive”. The “Mu pEC50 (CL95%)” value in data set [1] (CHO cells with human Mu and Gαqi5, Fluo-4 AM, 37°C) is listed as “Inactive”. The “β-arrestin 2 Mu pEC50 (CL95%)” value in data set [11] was “inactive”.
